Key:
[1] = tested on: OVCAR-3 cells; assay: MTT assay OVCAR-3; type: cell-based; settings: Homo sapiens, 24h of treatment, mean ± SD
Protocol: (§1) Details are given in Supplementary Materials and Methods. Using probability unit and weighted regression method to calculate the IC50 value of compounds.
(§2) Total cells in the logarithmic growth phase were collected, digested using 0.25% pancreatic enzymes, and then diluted into single-cell suspensions using phosphate-buffered solution (PBS). These cells were seeded into 96-well plates at 4× 10^3-5× 10^3 cells per well (100 µL per well) and then A549, H460, OVCAR-3, SGC7901, MDA-MB-231, HCT116 and HepG2 were cultured at 37°Cin an incubator containing 5% CO2. After cell complete attachment, 100 µL of different concentrations of compounds (0.625 μM, 1.25 μM, 2.5μM, 5 μM, 10 μM) were added to the cells after the nutrient solution in each well was discarded, while no compound except 0.1% DMSO was added to cells in the control group; at the same time, each concentration was set up to 5 wells. In addition, 5 wells in each 96-well plate only received 100 µL of nutrient solution as a blank control. The plates were taken out after the cells were incubated with compounds for 24 h, and 20 µL of MTT solution (5 mg/mL) (Wuhan Boster Biotechnology Limited Company, Wuhan, China; item No. AR1156) was added into all the wells. After another time of incubation for 4 h at 37 °C, the nutrient solution in each well was discarded slowly, and 150 µL of DMSO was added to each well. The plates were shaken on a shaking table for 20 min. When the crystals were fully dissolved, the blank wells were used to zero the plate reader. The optical density (OD) of each well was detected at 490 nm. The IC50 value was determined as the concentration of the inhibitor that caused 50% inhibition. Using probability unit and weighted regression method to calculate the IC50 value of compounds.

[2] = target: EGFR kinase (Homo sapiens, UniProt P00533); assay: ADP-Glo kinase assay, EGFR; type: biochemical; settings: averages from triplicate assays
Protocol: (§3) The ADP-Glo™ kinase assay (Promega, Madison, WI) was used to screen target compounds for their inhibition effects for BRaf, EGFR kinase. The kinase assay was carried out in a 96-well plate, in a volume of 25 μL HEPES (pH 7.3) solvent containing 1.6 μg/mL EGF, and 20 ng of EGFR kinase, or 50 ng BRaf kinase, and 10 μM ATP (Promega, Madison, WI). […] Reactions in each well were started immediately by adding ATP and kept going for half an hour under 30 °C in a constant temperature incubator (Bluepard, Shanghai, China). After the plate cooled for 5 min at room temperature, 25 μl of ADP-Glo reagent was added into each well to stop the reaction and consume the remaining […] within 40 min. At the end, 50 μl of kinase detection reagent was added into the well and incubated for 1 h to produce a luminescence signal.

[3] = target: T1, human TS (hTS) (Homo sapiens, UniProt P04818); assay: Thymidylate synthase (TS) spectrophotometric assay; type: biochemical; settings: averages from triplicate assays
T1 construct: purchased ProSpec-Tany
Protocol: Recombinant human thymidylate synthase purchased from ProSpec-Tany Company. TS was assayed spectrophotometrically at 30 °C and pH 7.4 in a mixture containing 0.1 M 2-mercaptoethanol, 0.0003 M (6R,S)-tetrahydrofolate, 0.012 M formaldehyde, 0.02 M MgCl2, 0.001 M dUMP, 0.04 M Tris–HCl, 30 nM hTS, and 0.00075 M NaEDTA. […] The reaction was initiated by the addition of an amount of enzyme yielding a change in absorbance at 340 nm of 0.016/min in the absence of inhibitor.

[4] = tested on: SGC7901 cells; assay: MTT assay SGC7901; type: cell-based; settings: Homo sapiens, SGC-7901, 24h of treatment, mean ± SD
Protocol: as §1, §2

[5] = tested on: A549 cells; assay: MTT assay A549; type: cell-based, human; settings: Homo sapiens, A549, 24h of treatment, mean ± SD
Protocol: as §1, §2

[6] = target: BRaf kinase (Homo sapiens, UniProt P15056); assay: ADP-Glo kinase assay, BRaf; type: biochemical; settings: averages from triplicate assays
Protocol: as §3

[7] = tested on: HCT-116 cells; assay: MTT assay HCT-116; type: cell-based; settings: Homo sapiens, 24h of treatment, mean ± SD
Protocol: as §1, §2

[8] = tested on: HepG2 cells; assay: MTT assay HepG2; type: cell-based; settings: Homo sapiens, 24h of treatment, mean ± SD
Protocol: as §1, §2

[9] = tested on: MDA-MB-231 cells; assay: MTT assay MDA-MB-231; type: cell-based; settings: Homo sapiens, 24h of treatment, mean ± SD
Protocol: as §1, §2

EGFR kinase, sequence (P00533 25-1210): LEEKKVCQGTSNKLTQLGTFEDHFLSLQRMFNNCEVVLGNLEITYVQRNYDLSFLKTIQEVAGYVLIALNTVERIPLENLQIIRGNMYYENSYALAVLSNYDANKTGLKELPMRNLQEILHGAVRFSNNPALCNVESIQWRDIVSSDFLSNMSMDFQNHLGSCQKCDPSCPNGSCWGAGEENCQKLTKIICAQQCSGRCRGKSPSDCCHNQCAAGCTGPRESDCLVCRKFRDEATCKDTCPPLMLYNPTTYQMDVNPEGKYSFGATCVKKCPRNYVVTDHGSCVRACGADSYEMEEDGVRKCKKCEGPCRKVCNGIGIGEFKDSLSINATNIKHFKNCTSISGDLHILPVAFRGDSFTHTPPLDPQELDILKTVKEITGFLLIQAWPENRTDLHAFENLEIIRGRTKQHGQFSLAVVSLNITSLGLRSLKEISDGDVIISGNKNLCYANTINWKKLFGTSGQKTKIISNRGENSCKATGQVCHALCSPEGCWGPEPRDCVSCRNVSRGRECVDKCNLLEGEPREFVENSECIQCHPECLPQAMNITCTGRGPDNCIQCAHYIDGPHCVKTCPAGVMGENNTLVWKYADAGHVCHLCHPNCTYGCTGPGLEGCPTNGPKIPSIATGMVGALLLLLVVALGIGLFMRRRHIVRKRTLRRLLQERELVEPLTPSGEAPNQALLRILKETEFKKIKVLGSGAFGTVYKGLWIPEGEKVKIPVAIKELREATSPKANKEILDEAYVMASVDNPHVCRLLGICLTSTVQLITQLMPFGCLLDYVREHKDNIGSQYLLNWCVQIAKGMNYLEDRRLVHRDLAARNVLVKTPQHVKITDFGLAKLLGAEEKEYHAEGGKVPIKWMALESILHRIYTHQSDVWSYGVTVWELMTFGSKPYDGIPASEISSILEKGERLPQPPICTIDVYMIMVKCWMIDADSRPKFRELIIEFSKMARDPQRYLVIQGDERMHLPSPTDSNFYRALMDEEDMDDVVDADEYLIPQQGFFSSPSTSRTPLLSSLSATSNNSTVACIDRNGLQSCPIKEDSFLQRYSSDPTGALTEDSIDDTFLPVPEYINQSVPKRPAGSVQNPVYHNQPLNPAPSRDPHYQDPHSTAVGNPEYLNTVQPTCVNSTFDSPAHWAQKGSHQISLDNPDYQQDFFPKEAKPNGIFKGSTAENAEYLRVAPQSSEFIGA
T1 sequence (P04818 whole entry): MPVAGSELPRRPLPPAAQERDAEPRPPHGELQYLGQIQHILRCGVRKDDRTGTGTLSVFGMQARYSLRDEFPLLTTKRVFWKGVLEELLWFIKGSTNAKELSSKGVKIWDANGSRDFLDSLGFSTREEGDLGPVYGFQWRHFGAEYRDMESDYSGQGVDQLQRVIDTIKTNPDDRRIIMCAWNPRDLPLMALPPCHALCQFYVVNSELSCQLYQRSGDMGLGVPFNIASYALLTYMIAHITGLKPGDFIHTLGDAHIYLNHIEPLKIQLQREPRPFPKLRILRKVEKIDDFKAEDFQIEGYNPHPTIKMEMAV
BRaf kinase, sequence (P15056 whole entry): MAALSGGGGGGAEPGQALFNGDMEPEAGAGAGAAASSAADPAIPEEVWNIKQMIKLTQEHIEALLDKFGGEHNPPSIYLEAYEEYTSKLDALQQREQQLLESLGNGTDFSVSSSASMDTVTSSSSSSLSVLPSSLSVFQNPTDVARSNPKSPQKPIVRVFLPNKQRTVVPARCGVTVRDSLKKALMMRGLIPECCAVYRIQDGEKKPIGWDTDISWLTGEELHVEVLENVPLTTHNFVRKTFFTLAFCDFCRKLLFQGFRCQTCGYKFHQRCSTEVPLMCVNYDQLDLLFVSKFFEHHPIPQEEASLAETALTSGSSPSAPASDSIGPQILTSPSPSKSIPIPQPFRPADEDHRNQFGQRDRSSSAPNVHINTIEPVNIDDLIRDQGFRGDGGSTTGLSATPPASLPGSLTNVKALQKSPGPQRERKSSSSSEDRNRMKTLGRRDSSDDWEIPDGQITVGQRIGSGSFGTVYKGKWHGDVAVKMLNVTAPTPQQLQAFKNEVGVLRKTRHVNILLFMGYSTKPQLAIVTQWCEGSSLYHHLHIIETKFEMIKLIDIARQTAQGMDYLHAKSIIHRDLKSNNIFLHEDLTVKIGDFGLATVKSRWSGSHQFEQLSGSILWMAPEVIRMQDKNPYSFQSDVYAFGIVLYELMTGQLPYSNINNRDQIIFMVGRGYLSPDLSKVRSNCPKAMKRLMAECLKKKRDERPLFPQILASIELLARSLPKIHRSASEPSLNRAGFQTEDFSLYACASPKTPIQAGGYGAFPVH

Compound | IC50 [1] [µM] | IC50 [2] [µM] | IC50 [3] [µM] | IC50 [4] [µM] | IC50 [5] [µM] | IC50 [6] [µM] | melting point [°C] | IC50 [7] [µM] | IC50 [8] [µM] | IC50 [9] [µM]
O=C(Nc1ccc(NS(=O)(=O)c2c[nH]c(=O)[nH]c2=O)cc1)Nc1ccccc1Cl [Compound L13d, N'-(2-chlorophenyl)-4-(2,4-dihydroxypyrimidine-5-sulfonamido)phenylurea] | 1.73 ± 0.44 | 4.22 | 2.36 | 5.3 ± 0.28 | 2.01 ± 0.14 | 2.39 | 167 to 169 | 4.13 ± 0.16 | 6.56 ± 0.15 | > 10
O=C(Nc1ccc(NS(=O)(=O)c2c[nH]c(=O)[nH]c2=O)cc1)Nc1cccc(Cl)c1 [Compound L13e, N'-(3-chlorophenyl)-4-(2,4-dihydroxypyrimidine-5-sulfonamido)phenylurea] | 1.05 ± 0.42 | 4.41 | 4.55 | 3.38 ± 0.18 | 0.95 ± 0.05 | 3.64 | 169 to 171 | 2.46 ± 0.06 | 2.81 ± 0.16 | 2.48 ± 1.46
O=C(Nc1ccc(Cl)cc1)Nc1ccc(NS(=O)(=O)c2c[nH]c(=O)[nH]c2=O)cc1 [Compound L13f, N'-(4-chlorophenyl)-4-(2,4-dihydroxypyrimidine-5-sulfonamido)phenylurea] | 8.04 ± 0.32 | 4.65 | 6.3 | 3.98 ± 0.05 | 0.99 ± 0.07 | 3.59 | 175 to 177 | 5.53 ± 0.25 | 4.35 ± 0.45 | 8.89 ± 2.42
Cc1ccccc1NC(=O)Nc1ccc(NS(=O)(=O)c2c[nH]c(=O)[nH]c2=O)cc1 [Compound L13g, N'-(2-methylphenyl)-4-(2,4-dihydroxypyrimidine-5-sulfonamido)phenyl urea] | 2.68 ± 0.38 | > 10 | 9.25 | 6.39 ± 0.19 | 4.68 ± 0.11 | > 10 | 169 to 173 | 4.75 ± 0.07 | 9.16 ± 0.12 | > 10
Cc1cccc(NC(=O)Nc2ccc(NS(=O)(=O)c3c[nH]c(=O)[nH]c3=O)cc2)c1 [Compound L13h, N'-(3-methylphenyl)-4-(2,4-dihydroxypyrimidine-5-sulfonamido)phenylurea] | 9.56 ± 0.94 | 3.99 | 4.57 | 6.35 ± 0.52 | 1.85 ± 0.13 | 3.53 | 179 to 182 | 5.46 ± 1.21 | 5.83 ± 0.18 | > 10
Cc1ccc(NC(=O)Nc2ccc(NS(=O)(=O)c3c[nH]c(=O)[nH]c3=O)cc2)cc1 [Compound L13i, N'-(4-methylphenyl)-4-(2,4-dihydroxypyrimidine-5-sulfonamido) phenyl urea] | > 10 | 5.48 | 7.39 | 4.92 ± 0.23 | 3.48 ± 0.13 | 4.91 | 181 to 183 | 7.98 ± 0.61 | 8.25 ± 0.25 | > 10
O=C(Nc1ccccc1Cl)Nc1ccccc1NS(=O)(=O)c1c[nH]c(=O)[nH]c1=O [Compound L14d, N'-(2-chlorophenyl)-2-(2,4-dihydroxypyrimidine-5-sulfonamido)phenyl urea] | 7.27 ± 1.23 | 2.39 | 1.91 | 5.22 ± 0.18 | 3.29 ± 0.3 | 1.62 | 151 to 153 | 4.96 ± 0.63 | 2.2 ± 0.06 | 6.71 ± 0.18
O=C(Nc1ccc(Cl)cc1)Nc1ccccc1NS(=O)(=O)c1c[nH]c(=O)[nH]c1=O [Compound L14f, N'-(4-chlorophenyl)-2-(2,4-dihydroxypyrimidine-5-sulfonamido)phenyl urea] | 6.52 ± 0.5 | 2.23 | 2.12 | 3.98 ± 0.33 | 1.38 ± 0.27 | 1.71 | 160 to 163 | 4.22 ± 0.31 | 1.62 ± 0.1 | 4.54 ± 0.41
Cc1ccccc1NC(=O)Nc1ccccc1NS(=O)(=O)c1c[nH]c(=O)[nH]c1=O [Compound L14g, N'-(2-methylphenyl)-2-(2,4-dihydroxypyrimidine-5-sulfonamido)phenyl urea] | > 10 | > 10 | 6.47 | 5.4 ± 0.09 | 2.09 ± 0.72 | 7.41 | 151 to 154 | 4.82 ± 0.19 | 5.59 ± 0.64 | > 10
Cc1cccc(NC(=O)Nc2ccccc2NS(=O)(=O)c2c[nH]c(=O)[nH]c2=O)c1 [Compound L14h, N'-(3-methylphenyl)-2-(2,4-dihydroxypyrimidine-5-sulfonamido)phenylurea] | 7.3 ± 0.68 | 4.28 | 3.52 | 3.3 ± 0.15 | 1.45 ± 0.06 | 3.61 | 155 to 158 | 5.39 ± 0.41 | > 10 | 7.16 ± 0.9
Cc1ccc(NC(=O)Nc2ccccc2NS(=O)(=O)c2c[nH]c(=O)[nH]c2=O)cc1 [Compound L14i, N'-(4-methylphenyl)-2-(2,4-dihydroxypyrimidine-5-sulfonamido)phenylurea] | > 10 | > 10 | 6.98 | 5.13 ± 0.44 | 1.37 ± 0.45 | 5.45 | 165 to 169 | 5.62 ± 0.61 | 5.72 ± 0.21 | 7.3 ± 0.1
CNC(=O)c1cc(Oc2ccc(NC(=O)Nc3ccc(Cl)c(C(F)(F)F)c3)cc2)ccn1 [Sorafenib, reference compound] | > 10 | – | – | > 10 | > 10 | – | – | > 10 | 8.21 ± 0.34 | > 10
